According to patent US20110144010A1, “Spontaneously Dispersible Preconcentrates Including a Peptide Drug in a Solid or Semisolid Carrier” (Novo Nordisk A/S, priority 2007, published 2011):

Tests used:
[1] = system: non diabetic dogs; test: Reduction in blood glucose after oral administration of enteric coated capsule to non diabetic dogs; format: in vivo; details: overnight fasted dogs, propylene glycol, Capmul MCM, Pluronic F127, PEG 3350
[2] = system: non-diabetic SPRD rats; test: Reduction of the blood glucose level after per-oral dosage (via gavage) to non-diabetic SPRD rats; format: in vivo
Description: The reduction in blood glucose in non-diabetic rats was examined after:
3) Vehicle SEDDS containing 62.5% propylene glycol, 31.25% Capmul MCM C10 and 6.25% poloxamer 407 was dosed orally. SEDDS had been melted at 35° C. before dosing.
(mean±SEM, n=5-6, dosage volume=4 ml/kg).

## Asp^B28 human insulin [insulin aspart]
[1]; oral enteric coated capsule: 69 mg insulin aspart, FIG. 1
  Blood glucose levels: Reduction in blood glucose levels
[2]; 9600 nmol/kg in SEDDS (propylene glycol, Capmul MCM C10, poloxamer 407) or 9800 nmol/kg in H2O, FIG. 3
  Blood glucose level: Reduction of the Blood Glucose Level

## A14GluB25HisdesB30 human insulin
[1]; oral enteric coated capsule: 46 mg A14GluB25HisdesB30 human insulin, FIG. 2
  Blood glucose levels: Reduction in blood glucose levels
[2]; 4800 nmol/kg in SEDDS (propylene glycol, Capmul MCM C10, poloxamer 407) or 4880 nmol/kg in H2O, FIG. 4
  Blood glucose level: Reduction of the Blood Glucose Level
